“And” between values parts separate entries of the source, which are not always exact repeats. Equal entries are not always repeated.
Assay: an = ratio of the nth substance listed
Details: for viscosity / speed of sound / mass density: 102 kPa, Liquid; for viscosity: Concentric cylinders viscometry; for speed of sound: Frequency=3 MHz, Sing-around technique in a fixed-path interferometer; for mass density: Vibrating tube method; for surface tension liquid-gas: 294.5 K, Pendant drop shape

CCCCC1CCCCC1 [butylcyclohexane] + CCCCCCCCCCCCCCCC
Details	mass density [kg/m3]	speed of sound [m/s]	viscosity [mPa·s]
293.15 K, a2 = 0.25	791.29	1334.4	1.68
293.15 K, a2 = 0.3333	789.5	1335.5	1.78
293.15 K, a2 = 0.3335	789.61	1335.2	1.78
293.15 K, a2 = 0.6666	785.19	–	2.08
293.15 K, a2 = 0.6667	–	1339.5	–
293.15 K, a2 = 0.9992	782.68	1342.9	2.29
293.15 K, a2 = 0.9997	782.68	1342.9	2.29
293.15 K, a2 = 1.5	780.35	1345.6	2.5
293.15 K, a2 = 2.997	777.44	1349.7	2.84
293.15 K, a2 = 3.001	777.44	1350	2.84
293.15 K, a2 = 3.998	776.54	1350.8	2.96
303.15 K, a2 = 0.25	784.02	1295.9	1.4
303.15 K, a2 = 0.3333	782.27	1297.1	1.5
303.15 K, a2 = 0.3335	782.37	1296.8	1.49
303.15 K, a2 = 0.6666	778.07	–	1.71
303.15 K, a2 = 0.6667	–	1301.7	–
303.15 K, a2 = 0.9992	775.6	1305.2	1.87
303.15 K, a2 = 0.9997	775.6	1305.2	1.87
303.15 K, a2 = 1.5	773.33	1308.2	2.04
303.15 K, a2 = 2.997	770.54	1312.4	2.29
303.15 K, a2 = 3.001	770.45	1312.7	2.29
303.15 K, a2 = 3.998	769.57	1313.6	2.37
313.15 K, a2 = 0.25	776.71	1257.8	1.19
313.15 K, a2 = 0.3333	775.01	1259.3	1.26
313.15 K, a2 = 0.3335	775.12	1259.1	1.26
313.15 K, a2 = 0.6666	770.92	–	1.44
313.15 K, a2 = 0.6667	–	1264.4	–
313.15 K, a2 = 0.9992	768.51	1268.2	1.56
313.15 K, a2 = 0.9997	768.51	1268.2	1.56
313.15 K, a2 = 1.5	766.29	1271.3	1.69
313.15 K, a2 = 2.997	763.47	1275.9	1.88
313.15 K, a2 = 3.001	763.47	1276	1.88
313.15 K, a2 = 3.998	762.61	1277	1.95
323.15 K, a2 = 0.25	769.38	1220.2	1.03
323.15 K, a2 = 0.3333	767.73	1222.1	1.08
323.15 K, a2 = 0.3335	767.83	1222	1.08
323.15 K, a2 = 0.6667	763.75	1227.5	1.23
323.15 K, a2 = 0.9992	761.41	1231.8	1.33
323.15 K, a2 = 0.9997	761.41	1231.8	1.33
323.15 K, a2 = 1.5	759.24	1234.9	1.42
323.15 K, a2 = 2.997	756.48	1239.9	1.58
323.15 K, a2 = 3.001	756.48	1240.1	1.58
323.15 K, a2 = 3.998	755.63	1240.9	1.62
333.15 K, a2 = 0.25	762.02	1183.2	0.898
333.15 K, a2 = 0.3333	760.42	1185.7	0.942
333.15 K, a2 = 0.3335	760.52	1185.6	0.942
333.15 K, a2 = 0.6667	756.56	1191.2	1.06
333.15 K, a2 = 0.9992	754.28	1196.2	1.14
333.15 K, a2 = 0.9997	754.28	1196.2	1.14
333.15 K, a2 = 1.5	752.17	1199.1	1.22
333.15 K, a2 = 2.997	749.48	1204.7	1.34
333.15 K, a2 = 3.001	749.49	1205	1.34
333.15 K, a2 = 3.998	748.65	1205.4	1.38
343.15 K, a2 = 0.25	754.6	–	0.789
343.15 K, a2 = 0.3333	753.1	–	0.827
343.15 K, a2 = 0.3335	753.2	–	0.821
343.15 K, a2 = 0.6667	749.4	–	0.926
343.15 K, a2 = 0.9992	747.2	–	0.991
343.15 K, a2 = 0.9997	747.2	–	0.991
343.15 K, a2 = 1.5	745.1	–	1.06
343.15 K, a2 = 2.997	742.5	–	1.16
343.15 K, a2 = 3.001	742.5	–	1.16
343.15 K, a2 = 3.998	741.4	–	1.19

Details	surface tension liquid-gas [mN/m]
a2 = 0.25	26.6
a2 = 0.3333	26.7
a2 = 0.3335	26.9
a2 = 0.6667	26.9
a2 = 0.9992	26.9
a2 = 0.9997	26.9
a2 = 1.5	26.9
a2 = 2.997	27.1
a2 = 3.001	27
a2 = 3.998	27

CCCCC1CCCCC1 [butylcyclohexane] + CCCCCCCCCCCC
Details	mass density	speed of sound	viscosity
293.15 K, a2 = 0.3332	783.9 kg/m3	1317.5 m/s and 1317.3 m/s	1.34 mPa·s
293.15 K, a2 = 1	770.6 kg/m3	1309 m/s and 1308.8 m/s	1.38 mPa·s
293.15 K, a2 = 2.995	759 kg/m3	1302.4 m/s	1.44 mPa·s
293.15 K, a2 = 3.001	759 kg/m3	1302.6 m/s	1.42 mPa·s
303.15 K, a2 = 0.3332	776.5 kg/m3	1278.1 m/s and 1278.4 m/s	1.13 mPa·s
303.15 K, a2 = 1	763.3 kg/m3	1270.4 m/s and 1270.1 m/s	1.17 mPa·s
303.15 K, a2 = 2.995	751.7 kg/m3	1264 m/s	1.22 mPa·s
303.15 K, a2 = 3.001	751.7 kg/m3	1264.3 m/s	1.2 mPa·s
313.15 K, a2 = 0.3332	769.1 kg/m3	1239.7 m/s and 1239.9 m/s	0.972 mPa·s and 0.974 mPa·s
313.15 K, a2 = 1	755.9 kg/m3	1232.3 m/s and 1232 m/s	1.01 mPa·s and 1 mPa·s
313.15 K, a2 = 2.995	744.4 kg/m3	1226.2 m/s	1.04 mPa·s
313.15 K, a2 = 3.001	744.4 kg/m3	1226.5 m/s	1.02 mPa·s
323.15 K, a2 = 0.3332	761.6 kg/m3	1201.8 m/s and 1202 m/s	0.845 mPa·s and 0.846 mPa·s
323.15 K, a2 = 1	748.5 kg/m3	1194.8 m/s and 1194.6 m/s	0.88 mPa·s and 0.865 mPa·s
323.15 K, a2 = 2.995	737.1 kg/m3	1189 m/s	0.896 mPa·s
323.15 K, a2 = 3.001	737.1 kg/m3	1189.3 m/s	0.883 mPa·s
333.15 K, a2 = 0.3332	754.1 kg/m3	1164.8 m/s and 1164.7 m/s	0.743 mPa·s and 0.741 mPa·s
333.15 K, a2 = 1	741.1 kg/m3	1158.1 m/s and 1157.9 m/s	0.774 mPa·s and 0.757 mPa·s
333.15 K, a2 = 2.995	729.7 kg/m3	1152.5 m/s	0.788 mPa·s
333.15 K, a2 = 3.001	729.7 kg/m3	1152.9 m/s	0.77 mPa·s
343.15 K, a2 = 0.3332	746.5 kg/m3	–	0.656 mPa·s
343.15 K, a2 = 1	733.6 kg/m3 and 733.7 kg/m3	–	0.686 mPa·s and 0.668 mPa·s
343.15 K, a2 = 2.995	722.5 kg/m3	–	0.699 mPa·s
343.15 K, a2 = 3.001	722.2 kg/m3	–	0.678 mPa·s

Details	surface tension liquid-gas [mN/m]
a2 = 0.3332	26.1
a2 = 0.3335	26.1
a2 = 0.9998	25.8
a2 = 1	25.6
a2 = 2.997	25.4
a2 = 3.001	25.3
